Measured values published in patent US20230122249A1, “1H-PYRAZOLO[4,3-d]PYRIMIDINE COMPOUNDS AS TOLL-LIKE RECEPTOR 7 (TLR7) AGONISTS” (BRISTOL-MYERS SQUIBB COMPANY, priority 2020, published 2023).

What was measured:
[1] = test system: CD69 in human whole blood; assay: Induction of CD69 in human whole blood (hWB); type: cell-based; settings: heparinized human whole blood, 17 h, CD69 surface staining; 100% set to 1 uM resiquimod; average where assay repeated
How it was run: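 hWB stimulated with compound at 1 uM final (1 mM stock), 37° C o/n (17 hrs). Surface CD69-PE staining with CD14/CD19 gating, fix/lysis, then flow cytometry read. IC50 curves with 100% set to 1 uM resiquimod.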

human TLR7 = target: T1, human TLR7 (Homo sapiens, UniProt Q9NYK1); assay: Human TLR7 agonist activity (hTLR7 reporter) assay in HEK-Blue TLR7 cells, SEAP readout; type: cell-based; settings: 18 h treatment, average where assay repeated
T1 construct: host or cells: HEK-Blue TLR7 cells (engineered human embryonic kidney cells)
T1 sequence (Q9NYK1 27-1049): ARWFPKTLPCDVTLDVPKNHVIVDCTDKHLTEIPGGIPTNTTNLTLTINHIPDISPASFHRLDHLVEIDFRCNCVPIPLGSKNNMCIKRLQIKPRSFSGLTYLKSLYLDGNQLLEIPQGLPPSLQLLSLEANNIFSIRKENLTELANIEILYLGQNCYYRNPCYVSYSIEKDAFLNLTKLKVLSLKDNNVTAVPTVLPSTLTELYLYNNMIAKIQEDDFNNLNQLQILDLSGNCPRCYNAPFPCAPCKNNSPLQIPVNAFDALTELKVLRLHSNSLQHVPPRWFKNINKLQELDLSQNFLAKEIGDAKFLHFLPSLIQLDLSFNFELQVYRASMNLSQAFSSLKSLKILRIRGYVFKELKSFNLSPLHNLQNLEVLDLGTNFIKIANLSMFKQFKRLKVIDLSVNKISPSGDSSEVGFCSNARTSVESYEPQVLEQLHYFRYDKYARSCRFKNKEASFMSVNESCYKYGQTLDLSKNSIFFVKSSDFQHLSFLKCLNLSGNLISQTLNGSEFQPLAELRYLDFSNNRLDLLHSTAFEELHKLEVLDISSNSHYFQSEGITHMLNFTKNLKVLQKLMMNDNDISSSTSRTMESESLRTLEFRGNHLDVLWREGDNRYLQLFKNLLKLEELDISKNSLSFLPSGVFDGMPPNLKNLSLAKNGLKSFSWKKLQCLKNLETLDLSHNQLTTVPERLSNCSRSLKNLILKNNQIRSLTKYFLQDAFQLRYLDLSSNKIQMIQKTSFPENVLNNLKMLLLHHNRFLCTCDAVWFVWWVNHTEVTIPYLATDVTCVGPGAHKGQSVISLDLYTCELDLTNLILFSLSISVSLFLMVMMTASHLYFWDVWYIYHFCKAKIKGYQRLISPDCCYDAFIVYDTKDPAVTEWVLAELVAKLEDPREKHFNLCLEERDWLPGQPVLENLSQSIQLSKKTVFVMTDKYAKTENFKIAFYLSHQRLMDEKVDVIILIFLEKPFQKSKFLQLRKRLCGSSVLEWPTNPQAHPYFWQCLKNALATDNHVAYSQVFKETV
How it was run: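 HEK-Blue TLR7 cells (15,000/well) treated with compound for 18 h at 37 °C, 5% CO2. Secreted SEAP measured with Quanti-Blue, 30 min, OD 620 nm. EC50 taken as concentration giving half-maximal response between baseline and maximum.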

SMILES | EC50 [1] [nM] | EC50 (human TLR7) [nM]
COc1cc(C(=O)N2CCN(CC(C)(C)O)CC2)ccc1Cn1ncc2nc(N)nc(NCC3CC4(CC4)C3)c21 [Compound 239] | 110 | 39
COc1cc(C(=O)N(CCO)CCO)ccc1Cn1ncc2nc(N)nc(NCC3CC4(CC4)C3)c21 [Compound 228] | 553 | 894
COc1cc(CN2C[C@@H]3C[C@H]2CN3)ccc1Cn1ncc2nc(N)nc(NCC3CC4(C3)CC4(F)F)c21 (stereo partly drawn) [Compound 141] | 244 | 266
COc1cc(C(=O)N2CCN(C(C)=O)CC2)ccc1Cn1ncc2nc(N)nc(NCC3CC4(CC4)C3)c21 [Compound 235] | 223 | 146
COc1cc(C(=O)N2CC3(COC3)C2)ccc1Cn1ncc2nc(N)nc(NCC3CC4(CC4)C3)c21 [Compound 174] | 934 | 93.1
COc1cc(CN2CCN(CCO)CC2)ccc1Cn1ncc2nc(N)nc(NCC3CC4(CC4)C3)c21 [Compound 183] | 48.5 | 31.5
CCC[C@@H](CCO)Nc1nc(N)nc2cnn(Cc3ccc(CN4CC5(CCO5)C4)cc3OC)c12 [Compound 112] | 333 | 1.5
COc1cc(CN(C)C)ccc1Cn1ncc2nc(N)nc(NCC3CC4(C3)CC(F)(F)C4)c21 [Compound 186] | 783 | 950
COc1cc(C(=O)N2C[C@H]3CNC[C@H]3C2)ccc1Cn1ncc2nc(N)nc(NCC3CC4(CCC4)C3)c21 [Compound 182] | 202 | 394
COc1cc(CN2CC3(C2)CN(C(C)=O)C3)ccc1Cn1ncc2nc(N)nc(NCC3CC4(CC4)C3)c21 [Compound 108] | 52.9 | 50.1
COc1cc(C(=O)N2C[C@H]3C[C@@H]2CN3C)ccc1Cn1nc(C)c2nc(N)nc(NCC3CC4(CC4)C3)c21 [Compound 208] | 45.8 | 119
COc1cc(C(=O)NC2CCN(C3CC3)CC2)ccc1Cn1ncc2nc(N)nc(NCC3CC4(CC4)C3)c21 [Compound 195] | 411 | 193
COc1cc(C(=O)N2CCC(S(C)(=O)=O)CC2)ccc1Cn1ncc2nc(N)nc(NCC3CC4(CC4)C3)c21 [Compound 226] | 555 | 425
COc1cc(CN2C[C@@H]3C[C@H]2CN3)ccc1Cn1ncc2nc(N)nc(NCC3CC4(CCC4)C3)c21 [Compound 156] | 374 | 76.9
COc1cc(C(=O)NC2CN(C)C2)ccc1Cn1ncc2nc(N)nc(NCC3CC4(CC4)C3)c21 [Compound 190] | 168 | 315
COc1cc(C(=O)N2CC3(CN(C)C3)C2)ccc1Cn1ncc2nc(N)nc(NCC3CC4(CCC4)C3)c21 [Compound 200] | 130 | 124
CCC[C@@H](CCO)Nc1nc(N)nc2cnn(Cc3ccc(C(=O)N4CC5(C4)CN(C4CCOCC4)C5)cc3OC)c12 [Compound 229] | 37.6 | 37.9
COc1cc(CN2CC3(C2)CN(C(C)=O)C3)ccc1Cn1ncc2nc(N)nc(NCC3CC4(C3)CC4F)c21 (stereo not drawn) [Compound 121] | 160 | 358
CCC[C@@H](CCO)Nc1nc(N)nc2cnn(Cc3ccc(C(=O)N4CC5(CN(CCO)C5)C4)cc3OC)c12 [Compound 233] | 265 | 412
COc1cc(CN2CC3(C2)CS(=O)(=O)C3)ccc1Cn1ncc2nc(N)nc(NCC3CC4(CC4)C3)c21 (stereo not drawn) [Compound 145] | 326 | 179
COc1cc(C(=O)NC2CN(C)C2)ccc1Cn1ncc2nc(N)nc(NCC3CC4(CCC4)C3)c21 [Compound 205] | 314 | 328
COc1cc(CN2CC3(CC(OC)C3)C2)ccc1Cn1ncc2nc(N)nc(NCC3CC4(CC4)C3)c21 (stereo not drawn) [Compound 147] | 37 | 40.5
COc1cc(CN2CC3(C2)CS(=O)(=O)C3)ccc1Cn1ncc2nc(N)nc(NCC3CC4(C3)CC4(F)F)c21 (stereo not drawn) [Compound 139] | 464 | 382

More lines, in order of falling EC50 [1], values ahead:

EC50 [1] [nM] | EC50 (human TLR7) [nM] | SMILES
36.3 | 93.3 | CCC[C@@H](CCO)Nc1nc(N)nc2cnn(Cc3ccc(C(=O)N4CC5(CN(C)C5)C4)cc3OC)c12 [Compound 206]
35 | 125 | CN1C[C@@H]2CN(C(=O)c3ccc(Cn4ncc5nc(N)nc(NCC6CC7(CC7)C6)c54)c(OC(F)F)c3)C[C@@H]2C1 [Compound 218]
31.1 | 138 | CCCCNc1nc(N)nc2c(C)nn(Cc3ccc(CN4CC5(C4)CN(C(C)=O)C5)cc3OC)c12 [Compound 244]
18.7 | 244 | COc1cc(CN2CC3(C2)CS(=O)(=O)C3)ccc1Cn1ncc2nc(N)nc(NCc3noc(C)n3)c21 [Compound 254]
14 | 72.9 | COc1cc(CN2CC3(C2)CN(C[C@H](C)O)C3)ccc1Cn1ncc2nc(N)nc(NCC3CC4(CC4)C3)c21 [Compound 241]
13.5 | 62.9 | CCCCNc1nc(N)nc2cnn(Cc3ccc(CN4CC5(COC5)C4)cc3OC)c12 [Compound 103]
13.1 | 36.5 | COc1cc(C(=O)N2C[C@@H]3C[C@H]2CN3C)ccc1Cn1ncc2nc(N)nc(NCC3CC4(CC4)C3)c21 [Compound 179]
11.1 | 180 | CCC[C@@H](CCO)Nc1nc(N)nc2c(C)nn(Cc3ccc(CN4CC5(CNC5)C4)cc3OC)c12 [Compound 246]
10.7 | 267 | CCCCNc1nc(N)nc2cnn(Cc3ccc(CN4CC5(CCNCC5)C4)cc3OC)c12 [Compound 256]
10.2 | 93.2 | COc1cc(C(=O)NCCN(C)C)ccc1Cn1ncc2nc(N)nc(NCC3CC4(CC4)C3)c21 [Compound 234]
8.9 | 42.5 | COc1cc(CN2CC3(CC(O)C3)C2)ccc1Cn1ncc2nc(N)nc(NCC3CC4(CC4)C3)c21 (stereo not drawn) [Compound 146]
5.4 | 20.9 | COc1cc(C(=O)N2CC3(CN(C)C3)C2)ccc1Cn1ncc2nc(N)nc(NCC3CC4(CC4)C3)c21 [Compound 173]
4.4 | 64.5 | CCCCNc1nc(N)nc2cnn(Cc3ccc(CN4CCC5(C4)CN(CCO)C5)cc3OC)c12 [Compound 262]
3.8 | 30.4 | COc1cc(CN2CC(CCO)C2)ccc1Cn1ncc2nc(N)nc(NCC3CC4(CC4)C3)c21 [Compound 168]
2.8 | 17 | COc1cc(C(=O)N2CCNCC2)ccc1Cn1ncc2nc(N)nc(NCC3CC4(CC4)C3)c21 [Compound 171]
2.4 | 16 | COc1cc(C(=O)N(C)CCN(C)C)ccc1Cn1ncc2nc(N)nc(NCC3CC4(CC4)C3)c21 [Compound 222]
2.3 | 53.4 | COc1cc(CN2CC3(C2)CN(C(C)C)C3)ccc1Cn1ncc2nc(N)nc(NCc3cc(C)on3)c21 [Compound 213]
2.1 | 18.5 | COc1cc(CNCCO)ccc1Cn1ncc2nc(N)nc(NCC3CC4(CC4)C3)c21 [Compound 170]
1.8 | 134 | CCC[C@@H](CCO)Nc1nc(N)nc2cnn(Cc3ncc(C4CC5(C4)CN(C(C)C)C5)cc3OC)c12 [Compound 251]
1.7 | 23 | COc1cc(CN[C@H]2C[C@H](O)C2)ccc1Cn1ncc2nc(N)nc(NCC3CC4(CC4)C3)c21 [Compound 167]
1.3 | 7.3 | CCC[C@@H](CCO)Nc1nc(N)nc2cnn(Cc3ccc(CN4CC5(C4)CN(C(C)C)C5)cc3OC)c12 [Compound 216]
1.2 | 11 | CCC[C@@H](CCO)Nc1nc(N)nc2cnn(Cc3ncc(C4=CC5(CCN(CC(C)C)CC5)C4)cc3OC)c12 [Compound 275]
0.4 | 6.1 | CCC[C@@H](CCO)Nc1nc(N)nc2cnn(Cc3ccc(CN4CC5(C4)CN(CC4CCC4)C5)cc3OC)c12 [Compound 252]
0.3 | 19.7 | CCC[C@@H](CCO)Nc1nc(N)nc2cnn(Cc3ncc(C4CCC5(CC4)CN(C(C)C)C5)cc3OC)c12 [Compound 277]
0.2 | 11.5 | CCC[C@@H](CCO)Nc1nc(N)nc2cnn(Cc3ncc(C4CC5(CCN(C6CCOCC6)CC5)C4)cc3OC)c12 [Compound 270]
